{
  "source": "patent US12678412B2",
  "about": "“Substituted tolans for the modulation of microbial colonization” (BioMendics, LLC, priority 2017, dated 2026)",
  "key": {"wild type E. Coli": {"tested_on": "wild type E. Coli", "details": "previous data; cited from earlier work"}, "S. typhimurium TA100": {"tested_on": "S. typhimurium TA100", "assay": "Dose range finding colony forming assay, strain TA100 with metabolic activation", "assay_type": "cell-based", "details": "positive control, 2 μg/plate", "procedure": "(§1) A series of dose range finding assays were performed with five bacterial strains, S. typhimurium TA97a, TA98, TA100, TA1535, and E. coli WP2 uvrA pKM101, with and without metabolic activation at three plates per dose. The following doses, along with positive and negative controls, were tested: 5000, 2500, 1250, 500, 250, 125, 50, 20, 10, 5, 2, 1, and 0.2 μg/plate. The plates were evaluated for toxicity (a decrease in plate counts with increasing dose and/or a visible thinning of the background lawn) and for precipitation of the test article. Metabolic activation was included in some samples by adding phenobarbital/benzoflavone-induced rat liver S9 fractions with cofactors (S9 mix). Prior to use, freshly thawed aliquots of rat liver S9 were mixed with a sterile cofactor mix. The S9 mix contains a 10% liver S9 concentration and was refrigerated or stored on ice until used. When testing with metabolic activation, the S9 mix was used in the assay tube in place of phosphate buffer.\n(§2) Dosing formulations were prepared to deliver all doses in a constant volume of 0.1 mL. The highest dose was prepared from test article weighed to the nearest 0.1 mg and the remaining formulations were prepared as serial dilutions from the high dose stock formulation. Using a permanent marking pen or computer printed labels, assay plates were labeled with the project and study numbers and the date. Assay plates and tubes were labeled with a unique identifier, which was used to match the assay tubes with the properly identified minimal glucose agar plate.\n(§3) The pre-incubation method was used to perform the assay. The assay mix consisted of 0.1 mL of the test article formulation or control article, 0.5 mL S9 mix or phosphate buffer, and 0.1 mL of bacterial culture. Assay tubes were incubated at 37±1° C. with gentle agitation for 20±1 minutes, then 2.0-2.5 mL top agar was added to the assay mix and the top agar/assay mix poured onto appropriately labeled minimal glucose agar plates. Once the top agar hardened, the plates were inverted and incubated at 37±1° C. for 48±2 hours. Plates were counted with the Sorcerer (v. 2.2)/Ames Study Manager (v. 1.2.4) system from Perceptive Instruments (Suffolk, UK). With this system, plate counts are automatically transferred from the plate imager (Sorcerer) to a Study Manager spreadsheet, and the data are stored in a secure manner on an Oracle database. Some plates were hand counted, e.g., if sample precipitate interferes with automatic counting or toxicity results in the formation of microcolonies, in which case, counts for these plates were entered into the spreadsheet manually. Plates were scored also with the extent of colonization by a post fix code."}, "[1]": {"tested_on": "NEB 5 α competent E. coli", "assay": "Bacterial colony forming assay (Examples 6-9)", "assay_type": "cell-based", "details": "alcohol gel", "procedure": "NEB 5 α competent E. coli were retrieved from frozen cultures and grown overnight in a bacterial incubator at 37° C. Proliferating cultures of bacteria were used in a colony forming assay by adding 25 μL of bacteria from the overnight culture to 10 mL of fresh Lysogeny Broth (LB; Bertani, G. (2004). “Lysogeny at mid-twentieth century: P1, P2, and other experimental systems”. Journal of Bacteriology. 186 (3): 595-600. PMC 321500. PMID 14729683. doi:10.1128/JR.186.3.595-600.2004). 1 mL of this diluted bacteria was added to various dilutions of formulations of substituted tolan compounds as described in Table C, below and in charts of the corresponding Figures.\nOne mL of each formulation was mixed with 1 mL of diluted bacteria in LB and put onto agar plates. Alcohol gels were allowed to dry and incubated overnight for 16-18 hrs. Control plates consisted of 2 mL alcohol gel plus 1 mL diluted bacteria, resulting in a colony count of less than 10 colonies, a 1 mL alcohol gel plus 1 mL diluted bacteria, resulting in a partial lawn of bacteria (colonies were too close to count appropriately), 1 mL diluted bacteria alone, resulting in a full lawn of bacteria (no distinguishable colonies), and an appropriate dilution of PEG-400 and HPβCD into 1 mL of alcohol gel plus 1 mL diluted bacteria, resulting in a lawn of bacteria. Plate area was then selected and the Image J colony counter was used to obtain colony counts (Size (pixels squared) 5-1000 and circularity 0.5-1)."}, "S. typhimurium TA98": {"tested_on": "S. typhimurium TA98", "assay": "Dose range finding colony forming assay, strain TA98 with metabolic activation", "assay_type": "cell-based", "details": "positive control, 2 μg/plate", "procedure": "as §1, §2, §3"}, "S. typhimurium TA97a": {"tested_on": "S. typhimurium TA97a", "assay": "Dose range finding colony forming assay, strain TA97a with metabolic activation", "assay_type": "cell-based", "details": "positive control, 2.5 μg/plate", "procedure": "as §1, §2, §3"}, "S. typhimurium TA1535": {"tested_on": "S. typhimurium TA1535", "assay": "Dose range finding colony forming assay, strain TA1535 without metabolic activation", "assay_type": "cell-based", "details": "positive control, 1 μg/plate", "procedure": "as §1, §2, §3"}, "[2]": {"tested_on": "Methicillin Resistant Staphylococcus aureus (MRSA, USA 400)", "assay": "Colony forming assay, 24 h plate assay, MRSA USA 400", "assay_type": "cell-based", "details": "Tobramycin 600 μg/mL, compared to the vehicle control, FIG. 9", "procedure": "Proliferating cultures of Methicillin Resistant Staphylococcus aureus (MRSA, USA 400) were used in a colony forming assay. Frozen stock cultures of MRSA USA 400 were thawed and grown overnight in tryptic soy broth (TSB) with shaking at 37° C. The overnight culture (0.5-1.0 mL) was added to 100 mL TSB and grown at 37° C. with shaking and monitored for an optical density of 0.55-0.60 in order to obtain a final inoculum suspension of approximately 10^8 CFU/mL.\nBM3103 was suspended into a 70% v/v alcohol gel formulation to acquire the desired % w/v tested within the example. Each concentration was vortexed thoroughly until dissolved. Initial tested concentrations of BM3103 were 1, 0.5, and 0.1% w/v. These concentrations and the alcohol gel vehicle were mixed with equal parts of the 10^8 CFU/mL inoculum to obtain a final concentration of 0.5, 0.25, and 0.05% (22 mM, 11 mM, and 2 mM) BM3103. Tobramycin (600 μg/mL) served as the positive control. Vehicle and BM3103 formulations contained matching final concentration of 35% v/v alcohol.\nBM3103 was dissolved into Transcutol (diethylene glycol monoethyl ether) at 2.5% w/v and vortexed until dissolved. This concentration was then serial diluted to achieve the remaining concentrations tested. Before plating, 100 μL of the final inoculum (10^8 CFU/mL) was mixed with 20 μL TSB broth and 80 μL of BM3103 doses or vehicle. Tobramycin, 600 μg/mL, served as the positive control. The final plating concentrations for BM3103 were 1, 0.5, 0.25, and 0.1% w/v (44 mM, 22 mM, 11 mM, 4 mM) BM3103. Vehicle and BM3103 formulations contained matching final concentration of 40% v/v Transcutol.\nThe above listed formulations combined with the MRSA inoculum were plated onto TSB agar plates. The plates were grown at 37° C. for 24 h, imaged, and the bacteria colonies were counted. The experiment was done in triplicate at each concentration level described above. Colony counts for each treatment were tabulated and the Log of the colony forming units/mL (Log CFU/mL) were determined. The mean and the standard error of the mean were calculated for each treatment."}, "[3]": {"tested_on": "Methicillin Resistant Staphylococcus aureus (MRSA USA 300)", "assay": "Colony forming assay, spread plate, MRSA USA 300", "assay_type": "cell-based", "details": "Tobramycin 600 μg/mL; compared to the untreated control; 24 h; FIGS. 6A-6B", "procedure": "A fresh culture of pathogenic isolate was used in these examples. The bacterial strains used were Methicillin Resistant Staphylococcus aureus (MRSA USA 300), Pseudomonas aeruginosa ATCC 27312, and Candida albicans ATCC 64550.\nFIG. 5 illustrates the spread plate method used in these examples. In sum, agar plates were made, bacteria were diluted to 10^6 or 10^8 CFU/mL, bacteria and drug were mixed together and then plated. Glass spreading beads were used because they give a better bacterial spread. Plates were incubated for 24 hrs then the colonies that formed were counted.\nProliferating cultures of Methicillin Resistant Staphylococcus aureus (MRSA, USA 300) were used in a colony forming assay. Freeze-dried bacteria culture of MRSA was recovered by swabbing a 3-cm diameter growth area and resuspending it to obtain a final inoculum suspension of approximately 10^8 CFU/mL. The concentration was confirmed using historical optical density measurements. The total compound BM3103 was suspended in a 70% v/v alcohol gel formulation (Formulation A) before the introduction of bacteria, with the vehicle consisting of solely the 70% v/v alcohol gel. MRSA at 10^8 CFU/mL was challenged with equal parts of a high, medium, and low dose of BM3103, vehicle formulation, positive control (Tobramycin, 600 μg/mL), or untreated control (phosphate buffered saline). The inoculum was plated on Tryptic Soy Broth plates at 37° C. for 24 h. Plates were photographed and counted. The treatment for each experiment was done in triplicate, and the experiment was repeated three times, for a total of 9 plates per group.\nColony counts for each treatment were tabulated and the Log of the colony forming units/mL (Log CFU/mL) was determined. The mean and standard deviation of the Log CFU/mL were calculated for each treatment. A one-way analysis of variance was performed at a 95% confidence interval."}},
  "data": [
    {"compound": "Oc1ccc(C#Cc2cc(O)cc(O)c2)cc1", "note": "[3,5,4′-trihydroxytolan]", "values": [
      {"measurement": "Effectiveness against wild type E. Coli", "setting": "wild type E. Coli", "value": "ineffective"}
    ]},
    {"compound": "c1ccc2c(c1)cc1ccc3cccc4ccc2c1c34", "note": "[BAP_Moltox, Benzo(a) pyrene_Moltox, reference compound]", "values": [
      {"measurement": "Colony forming units/plate", "setting": "S. typhimurium TA100", "value": "806.0 colony forming units/plate"}
    ]},
    {"compound": "Oc1ccc(C#Cc2ccc(C(F)(F)F)cc2)cc1", "note": "[BM3213, 4-hydroxy-4′-(trifluoro)methyltolan]", "values": [
      {"measurement": "Inhibition of E. coli growth", "setting": "[1]; 2.23 mM, FIG. 3", "value": "very inhibitory to E. coli"},
      {"measurement": "Inhibition of E. coli growth", "setting": "[1]; concentrations 10 fold diluted from 2.23 mM, FIG. 3", "value": "less so"}
    ]},
    {"compound": "COc1ccc(C#Cc2ccc(OC)c(OC)c2)cc1", "note": "[BM3303, 3,4,4′-trimethoxytolan]", "values": [
      {"measurement": "Inhibition of E. coli growth", "setting": "[1]; 1.11 mM, FIG. 4", "value": "an inhibitor to E. coli"},
      {"measurement": "Dose dependence of inhibition of E. coli", "setting": "[1]; FIG. 4", "value": "dose dependent inhibitory effects"},
      {"measurement": "Inhibition of E. coli growth", "setting": "[1]; concentrations 10-fold diluted from 1.11 mM, FIG. 4", "value": "less so"}
    ]},
    {"compound": "Nc1ccc2cc3ccccc3cc2c1", "note": "[Compound 2A, 2-Aminoanthracene, reference compound]", "values": [
      {"measurement": "Colony forming units/plate", "setting": "S. typhimurium TA98", "value": "2315.0 colony forming units/plate"},
      {"measurement": "Colony forming units/plate", "setting": "S. typhimurium TA97a", "value": "3241.3 colony forming units/plate"}
    ]},
    {"compound": "[N-]=[N+]=[N-]", "note": "[NaN3, Sodium Azide, reference compound]", "values": [
      {"measurement": "Colony forming units/plate", "setting": "S. typhimurium TA1535", "value": "714.7 colony forming units/plate"}
    ]},
    {"compound": "NC[C@H]1O[C@H](O[C@H]2[C@H](O)[C@@H](O[C@H]3O[C@H](CO)[C@@H](O)[C@H](N)[C@H]3O)[C@H](N)C[C@@H]2N)[C@H](N)C[C@@H]1O", "note": "[Tobramycin, reference compound]", "values": [
      {"measurement": "Reduction of MRSA USA 400 counts", "setting": "[2]", "value": 4, "unit": "fold"},
      {"measurement": "Reduction of MRSA USA 300 counts", "setting": "[3]", "value": 6, "unit": "fold"}
    ]}
  ]
}
